From the supplement of paper PMC3974653
Where a name gives a salt, the structure may show the parent alone.

What was measured:
[1] = test system: MTT (mouse pheochromocytoma); assay: efficacy (maximal response) relative to doxorubicin = -100% and DMSO = 0%; higher = less inhibition of viability; conditions: (24 or 48 h)
[2] = test system: MTT (mouse pheochromocytoma); assay: IC50 of cell viability (ATP content); AC50 where efficacy is positive; conditions: (24 or 48 h)

`C[n+]1c2cc(N)ccc2cc2ccc(N)cc21.[Cl-]` [ACRIFLAVINIUM HYDROCHLORIDE] was tested, and the efficacy [1] was -50.3% and the “IC50 of cell viability” value [2] was 10.6 µM.
In the case of `C[S+](CC[C@H](N)C(=O)O)C[C@H]1O[C@@H](n2cnc3c(N)ncnc32)[C@H](O)[C@@H]1O` (stereo partly specified) [ADEMETIONINE], the efficacy [1] is reported as -49.1% and the “IC50 of cell viability” value [2] is reported as 21.1 µM.
`O=S(=O)([O-])c1cc(O)c2c(/N=N/c3ccc(Nc4ccccc4)c4c(S(=O)(=O)[O-])cccc34)cc(S(=O)(=O)[O-])cc2c1` [ANAZOLENUM NATRICUM] was tested, and the efficacy [1] was -33.8% and the “IC50 of cell viability” value [2] was 2.37 µM.
In the case of `CC[NH+](CC)CCCN(c1ccccc1)C1Cc2ccccc2C1` [APRINDINE HYDROCHLORIDE], the efficacy [1] is reported as -107% and the “IC50 of cell viability” value [2] is reported as 26.6 µM.
For `COc1ccc(CCN2CCC(Nc3nc4ccccc4n3Cc3ccc(F)cc3)CC2)cc1` [ASTEMIZOLE], the efficacy [1] was -74.8% and the “IC50 of cell viability” value [2] was 16.8 µM.
With `CCCSc1ccc2[nH]c(NC(=O)OC)nc2c1` [Albendazole] the efficacy [1] was -57.9% and the “IC50 of cell viability” value [2] was 0.718 µM.
With `N=c1ccn2c(n1)O[C@H]1[C@H](O)[C@@H](CO)O[C@H]12` [Ancitabina] the efficacy [1] was -68.2% and the “IC50 of cell viability” value [2] was 2.37 µM.
`C[C@@H]1CC[C@H]2[C@@H](C)C(=O)O[C@@H]3O[C@]4(C)CC[C@@H]1[C@@]32OO4` [Artemisinin] was tested, and the efficacy [1] was -62% and the “IC50 of cell viability” value [2] was 10.6 µM.
`CC[P](CC)(CC)=[Au][S][C@@H]1OC(COC(C)=O)[C@@H](OC(C)=O)[C@H](OC(C)=O)C1OC(C)=O` (stereo partly specified) [Auranofin] was tested, and the efficacy [1] was -86.7% and the “IC50 of cell viability” value [2] was 2.66 µM.
With `NC/1=N/C(=O)N(/C=N1)[C@@H]2O[C@H](CO)[C@@H](O)[C@H]2O` [Azacitidine] the efficacy [1] was -71.2% and the “IC50 of cell viability” value [2] was 1.33 µM.
In the case of `C/C(=C(/CCOC(=O)C(C)C)SS/C(CCOC(=O)C(C)C)=C(\C)N(C=O)Cc1cnc(C)nc1N)N(C=O)Cc1cnc(C)nc1N` [BISIBUTHIAMINE], the efficacy [1] is reported as -43.4% and the “IC50 of cell viability” value [2] is reported as 21.1 µM.
With `CC(C)C[C@@H](NC(=O)[C@@H](Cc1ccccc1)NC(=O)c1cnccn1)B(O)O` [BORTEZOMIB] the efficacy [1] was -74.6% and the “IC50 of cell viability” value [2] was 0.596 µM.
In the case of `CC(C)(Cc1c[nH]c2ccccc12)NCC(O)COc1ccccc1C#N` (stereo unspecified) [BUCINDOLOLUM], the efficacy [1] is reported as -41.7% and the “IC50 of cell viability” value [2] is reported as 11.9 µM.
In the case of `[H]/N=C(/c1ccc(OCCCCCC)c2ccccc12)N(CCCC)CCCC` [BUNAMIDINE HYDROCHLORIDE], the efficacy [1] is reported as -96.3% and the “IC50 of cell viability” value [2] is reported as 18.8 µM.
In the case of `CC(C)(C)CC(C)(C)c1ccc(OCCOCC[N+](C)(C)Cc2ccccc2)cc1` [Benzethonium chloride], the efficacy [1] is reported as -94.4% and the “IC50 of cell viability” value [2] is reported as 10.6 µM.
In the case of `COc1ccc2cc3[n+](cc2c1OC)CCc1cc2c(cc1-3)OCO2` [Berberine chloride], the efficacy [1] is reported as -53.9% and the “IC50 of cell viability” value [2] is reported as 4.22 µM.
With `CCN(CC)C1=CC=C(C=C1)C(\C2=CC=CC=C2)=C3\C=C/C(/C=C3)=[N+](\CC)CC` [Brilliant Green] the efficacy [1] was -108% and the “IC50 of cell viability” value [2] was 1.68 µM.
For `O=[N+]([O-])C(Br)(CO)CO` [Bronopol], the efficacy [1] was -58.4% and the “IC50 of cell viability” value [2] was 15 µM.
In the case of `CC1=CC(=CC=C1N)C(\C2=CC=C(N)C=C2)=C3/C=CC(=N)C=C3` [C.I. Basic Violet 14, free base], the efficacy [1] is reported as -47.4% and the “IC50 of cell viability” value [2] is reported as 2.37 µM.
In the case of `CC(C)OC(=O)Nc1ccc2[nH]c(-c3cscn3)nc2c1` [CAMBENDAZOLE], the efficacy [1] is reported as -45.2% and the “IC50 of cell viability” value [2] is reported as 8.41 µM.
With `CCCCCCNC(=O)N1\C=C(F)/C(=O)NC1=O` [CARMOFUR] the efficacy [1] was -56.9% and the “IC50 of cell viability” value [2] was 1.88 µM.
For `CC(=O)[C@]1(O)Cc2c(O)c3c(c(O)c2[C@@H](O[C@H]2C[C@H](N)[C@H](O)[C@H](C)O2)C1)C(=O)c1c(O)cccc1C3=O` [CARUBICINUM], the efficacy [1] was -59.2% and the “IC50 of cell viability” value [2] was 2.99 µM.
With `CCCCCCCCCCCCCCCC[N+](C)(C)Cc1ccccc1.O.[Cl-]` [CETALKONIUM CHLORIDE] the efficacy [1] was -56.9% and the “IC50 of cell viability” value [2] was 15 µM.
For `CCCCCCCCCCCCCCCCOCCOCCOCCOCCOCCOCCOCCOCCOCCOCCOCCOCCOCCOCCOCCOCCOCCOCCOCCOCCO` [CETOMACROGOL EMULSIFYING WAX], the efficacy [1] was -80.5% and the “IC50 of cell viability” value [2] was 16.8 µM.
With `CN/C(=N/C#N)NCCSCc1nc[nH]c1C` [CIMETIDINE] the efficacy [1] was -40.4% and the “IC50 of cell viability” value [2] was 13.3 µM.
`Cc1c(C(=O)O)c(O)cc2c1C(=O)c1c(O)c([C@H]3O[C@H](CO)[C@@H](O)[C@H](O)[C@H]3O)c(O)c(O)c1C2=O` [COCHINEAL] was tested, and the efficacy [1] was -45.4% and the “IC50 of cell viability” value [2] was 16.8 µM.
With `C[C@@]12C(=O)OC(=O)[C@@]1(C)[C@H]1CC[C@H]2O1` [Cantharidin] the efficacy [1] was -39% and the “IC50 of cell viability” value [2] was 1.28 µM.
In the case of `ClC(Cl)(Cl)SN1C(=O)C2C\C=C/CC2C1=O` (stereo unspecified) [Captan], the efficacy [1] is reported as -65.8% and the “IC50 of cell viability” value [2] is reported as 2.99 µM.
`CC(=O)C1(O)Cc2c(O)c3c(c(O)c2C(OC2CC(N)C(O)C(C)O2)C1)C(=O)c1c(O)cccc1C3=O` (stereo unspecified) [Carminomycin] was tested, and the efficacy [1] was -48.5% and the “IC50 of cell viability” value [2] was 2.66 µM.
For `CCCCCCCCCCCCCCCC[n+]1ccccc1` [Cetylpyridinium bromide], the efficacy [1] was -96.5% and the “IC50 of cell viability” value [2] was 10.6 µM.
With `CCCCCCCCCCCCCCCC[N+](C)(C)C` [Cetyltrimethylammonium bromide] the efficacy [1] was -89.1% and the “IC50 of cell viability” value [2] was 13.3 µM.
With `Cc1nc2ccccc2n1Cc1ccc(Cl)cc1` [Chlormidazole] the efficacy [1] was -59% and the “IC50 of cell viability” value [2] was 13.3 µM.
With `CN(C)C1=CC=C(C=C1)C(C2=CC=C(C=C2)N(C)C)=C/3\C=C/C(/C=C3)=[N+](C)C` [Chlorure de methylrosanilinum] the efficacy [1] was -111% and the “IC50 of cell viability” value [2] was 23.7 µM.
`CC/1=C/C(=O)N(O)/C(=C1)C2CCCCC2` [Ciclopirox ethanolamine] was tested, and the efficacy [1] was -84.9% and the “IC50 of cell viability” value [2] was 4.53 µM.
With `COC/1=C/C=C2\C(=C/C1=O)[C@H](CCC3=CC(=C(OC)C(=C23)OC)OC)NC(C)=O` [Colchicine] the efficacy [1] was -84.8% and the “IC50 of cell viability” value [2] was 0.473 µM.
For `COc1cc(/C=C/C(=O)CC(=O)/C=C/c2ccc(O)c(OC)c2)ccc1O` [Curcumin], the efficacy [1] was -79.7% and the “IC50 of cell viability” value [2] was 16.8 µM.
With `COC(=O)[C@H]1[C@H]2C[C@@H]3c4[nH]c5ccccc5c4CCN3C[C@H]2C[C@@H](OC(=O)c2cc(OC)c(OC)c(OC)c2)[C@@H]1OC` [DESERPIDINE] the efficacy [1] was -92.6% and the “IC50 of cell viability” value [2] was 13.3 µM.
In the case of `CCNC(=O)[C@@H]1CCCN1C(=O)[C@H](CCCNC(=N)N)NC(=O)[C@H](CC(C)C)NC(=O)[C@@H](Cc1c[nH]c2ccccc12)NC(=O)[C@H](Cc1ccc(O)cc1)NC(=O)[C@H](CO)NC(=O)[C@H](Cc1c[nH]c2ccccc12)NC(=O)[C@H](Cc1c[nH]cn1)NC(=O)[C@@H]1CCC(=O)N1` [DESLORELIN ACETATE], the efficacy [1] is reported as -88.5% and the “IC50 of cell viability” value [2] is reported as 2.99 µM.
For `CCN1/C(=C/C=C/C=C/c2sc3ccccc3[n+]2CC)Sc2ccccc21` [DITHIAZANINE IODIDE], the efficacy [1] was -109% and the “IC50 of cell viability” value [2] was 18.8 µM.
In the case of `Cc1cc(N)c2ccccc2[n+]1CCCCCCCCCC[n+]1c(C)cc(N)c2ccccc21` [Dequalinium dichloride], the efficacy [1] is reported as -81.5% and the “IC50 of cell viability” value [2] is reported as 11.4 µM.
For `CCCCCCCC[N+](C)(C)CCCCCCCC` [Dioctyl Dimethyl Ammonium Chloride], the efficacy [1] was -39.1% and the “IC50 of cell viability” value [2] was 0.119 µM.
In the case of `CCCCCCCC[N+](C)(C)CCCCCCCC` [Dioctyldimethylammonium chloride], the efficacy [1] is reported as -48.6% and the “IC50 of cell viability” value [2] is reported as 0.531 µM.
For `[O-][n+]1ccccc1SSc1cccc[n+]1[O-]` [Dipyrithione], the efficacy [1] was -81% and the “IC50 of cell viability” value [2] was 1.5 µM.
For `CCCCCCCCCCCC[N+](C)(C)CCOc1ccccc1` [Domiphen bromide], the efficacy [1] was -99.3% and the “IC50 of cell viability” value [2] was 15 µM.
In the case of `CC(C)(C)c1ccc(C(=O)CCCN2CCC(OC(c3ccccc3)c3ccccc3)CC2)cc1` [Ebastine], the efficacy [1] is reported as -49.3% and the “IC50 of cell viability” value [2] is reported as 9.44 µM.
For `CCOc1ccc(Cc2nccc3cc(OCC)c(OCC)cc23)cc1OCC` [Ethaverine hydrochloride], the efficacy [1] was -60% and the “IC50 of cell viability” value [2] was 3.6 µM.
For `CCOc1ccc(/N=N/c2ccc(N)cc2N)cc1` [Ethoxazene hydrochloride], the efficacy [1] was -57.4% and the “IC50 of cell viability” value [2] was 11.9 µM.
With `O=S(=O)([O-])c1ccc2c(/N=N/c3ccc(S(=O)(=O)[O-])c4ccccc34)c(O)c(S(=O)(=O)[O-])cc2c1` [FD & C Red Dye No. 2] the efficacy [1] was -95.8% and the “IC50 of cell viability” value [2] was 16.8 µM.
In the case of `COCC(=O)NC1=CC(SC2=CC=CC=C2)=CC=C1\N=C(/NC(=O)OC)NC(=O)OC` [FEBANTEL], the efficacy [1] is reported as -48% and the “IC50 of cell viability” value [2] is reported as 18.8 µM.
In the case of `N#Cc1nn(-c2c(Cl)cc(C(F)(F)F)cc2Cl)c(N)c1[S+]([O-])C(F)(F)F` (stereo unspecified) [FIPRONIL], the efficacy [1] is reported as -88.6% and the “IC50 of cell viability” value [2] is reported as 23.7 µM.
`O=C(Nc1cccc(C(F)(F)F)c1)c1cc(Br)cc(Br)c1O` [FLUOROSALAN] was tested, and the efficacy [1] was -35.6% and the “IC50 of cell viability” value [2] was 2.66 µM.
In the case of `COC(=O)Nc1nc2cc(Sc3ccccc3)ccc2[nH]1` [Fenbendazole], the efficacy [1] is reported as -61.4% and the “IC50 of cell viability” value [2] is reported as 1.01 µM.
In the case of `CN1CC[C@@H]([C@@H](O)C1)C2=C(O)C=C(O)C3=C2O\C(=C/C3=O)C4=C(Cl)C=CC=C4` [Flavopiridol hydrochloride hydrate], the efficacy [1] is reported as -71.3% and the “IC50 of cell viability” value [2] is reported as 1.88 µM.
